These molecules were tested against recombinant DYRK1A kinase (Homo sapiens, UniProt Q13627) (assay: DYRK1A kinase assay (Ser/Thr 18 peptide Z-lyte FRET)). Conditions: DYRK1A kinase activity; 15 μM ATP, 4 μM Ser/Thr peptide 18, one hour at room temperature.
Assay type: biochemical
Experimental: Representative compounds were screened using the assay procedure for DYRK1A kinase activity as described below.
Each compound was dissolved in DMSO as a 10 mM stock and used to prepare compound source plates. Serial dilution (1:3, 11-point dose-response curves from 10 μM to 0.00016 μM) and compound transfer was performed using the ECHO 550 (Labcyte, Sunnyvale, Calif.) into 1536-well black-walled round bottom plates (Corning).
The DYRK1A kinase assay was run using the Ser/Thr 18 peptide Z-lyte assay kit according to manufacturer's instructions (Life Technologies—a Division of Thermo-Fisher). This is a non-radioactive assay using fluorescence resonance energy transfer (FRET) between coumarin and fluorescein to detect kinase activity which is represented as a ratio of coumarin emission/fluorescein emission.
Briefly, recombinant DYRK1A kinase, ATP and Ser/Thr peptide 18 were prepared in 1× Kinase buffer to final concentrations of 0.25 μg/mL, 15 μM, and 4 μM respectively. The mixture was allowed to incubate with the representative compounds for one hour at room temperature. All reactions were performed in duplicate. Unphosphorylated (“0% Control”) and phosphorylated (“100% control”) forms of Ser/Thr 18 served as control reactions. Additionally, an 11-point dose-response curve of Staurosporine (1 uM top) was run to serve as a positive compound control.
After incubation, Development Reagent A was diluted in Development Buffer then added to the reaction and allowed to further incubate for one hour at room temperature. The plate was read at Ex 400 Em 455 to detect the coumarin signal and Ex 400 Em 520 to measure the signal (EnVision Multilabel Plate Reader, PerkinElmer).
The Emission ratio (Em) was calculated as a ratio of the coumarin (C) emission signal (at 445 nm)/Fluorescein (F) emission signal (at 520 nm). The percent phosphorylation was then calculated using the following formula: [1−((Em ratio×F100%)−C100%)/((C0%−C100%)+(Em ratio×(F100%−F0%)))]. Dose-response curves were generated, and inhibitory concentration (IC50) values were calculated using non-linear regression curve fit in the Dotmatics' Studies Software (Bishops Stortford, UK).

First: c1cnc2[nH]cc(-c3ccnc4[nH]ccc34)c2c1 [Compound 2, 1H,1′H-3,4′-Bipyrrolo[2,3-b]pyridine]
Second: c1cnc2[nH]cc(-c3cc4ccncc4s3)c2c1 [Compound 5, 2-(1H-Pyrrolo[2,3-b]pyridin-3-yl)thieno[2,3-c]pyridine]
The EC50 of the first is 5-fold higher: 50 nM for the first, 10 nM for the second.

Going from `Cn1cc2cc(-c3c[nH]c4ncccc34)ccc2n1` [Compound 3, 2-Methyl-5-(1H-pyrrolo[2,3-b]pyridin-3-yl)-2H-indazole] to `Cn1nnc2ccc(-c3c[nH]c4ncccc34)cc21` [Compound 31, 1-Methyl-6-(1H-pyrrolo[2,3-b]pyridin-3-yl)-1H-benzo[d][1,2,3]triazole], the EC50 falls from 6 nM to 4 nM (1.5-fold). The second is the more potent here.

First: c1cnc2sc(-c3c[nH]c4ncccc34)nc2c1 [Compound 4, 2-(1H-Pyrrolo[2,3-b]pyridin-3-yl)thiazolo[5,4-b]pyridine]
Second: c1cnc2[nH]cc(-c3nc4cnccc4[nH]3)c2c1 [Compound 7, 2-(1H-Pyrrolo[2,3-b]pyridin-3-yl)-1H-imidazo[4,5-c]pyridine]
The EC50 of the first is 29-fold lower: 7 nM for the first, 201 nM for the second. The first is the more potent here.

Compared with `O=C1NCCn2nc(-c3c[nH]c4ncccc34)cc21` [Compound 8, 2-(1H-Pyrrolo[2,3-b]pyridin-3-yl)-6,7-dihydropyrazolo[1,5-a]pyrazin-4(5H)-one], `O=C1NCCn2cc(-c3c[nH]c4ncccc34)cc21` [Compound 10, 7-(1H-Pyrrolo[2,3-b]pyridin-3-yl)-3,4-dihydropyrrolo[1,2-a]pyrazin-1(2H)-one] is 2-fold higher in EC50: 7 nM for the first, 14 nM for the second.

Compared with `CC1(C)NC(=O)c2cc(-c3c[nH]c4ncccc34)nn21` [Compound 9, 6,6-Dimethyl-2-(1H-pyrrolo[2,3-b]pyridin-3-yl)-5,6-dihydro-4H-imidazo[1,5-b]pyrazol-4-one], `O=C1NCCc2sc(-c3c[nH]c4ncccc34)cc21` [Compound 11, 2-(1H-Pyrrolo[2,3-b]pyridin-3-yl)-6,7-dihydrothieno[3,2-c]pyridin-4(5H)-one] is 1.6-fold lower in EC50: 19 nM for the first, 12 nM for the second.

Going from `c1cnc2[nH]cc(-c3ccc4nccn4c3)c2c1` [Compound 12, 6-(1H-Pyrrolo[2,3-b]pyridin-3-yl)imidazo[1,2-a]pyridine] to `c1cnc2[nH]cc(-c3cn4ccnc4cn3)c2c1` [Compound 20, 6-(1H-Pyrrolo[2,3-b]pyridin-3-yl)imidazo[1,2-a]pyrazine], the EC50 rises from 3 nM to 10 nM (3.3-fold).

Compared with `Cc1cn2cc(-c3c[nH]c4ncccc34)cc(F)c2n1` [Compound 13, 8-Fluoro-2-methyl-6-(1H-pyrrolo[2,3-b]pyridin-3-yl)imidazo[1,2-a]pyridine], `Cc1nnc2ccc(-c3c[nH]c4ncccc34)cn12` [Compound 32, 3-Methyl-6-(1H-pyrrolo[2,3-b]pyridin-3-yl)-[1,2,4]triazolo[4,3-a] pyridine] is 7.2-fold higher in EC50: 21 nM for the first, 151 nM for the second. The first is the more potent here.

`CN1CCC(NC(=O)c2cnc3ccc(-c4c[nH]c5ncccc45)cn23)CC1` [Compound 14, N-(1-Methylpiperidin-4-yl)-6-(1H-pyrrolo[2,3-b]pyridin-3-yl)imidazo[1,2-a]pyridine-3-carboxamide] and `CN1CCC(NC(=O)c2cnn3ccc(-c4c[nH]c5ncccc45)cc23)CC1` [Compound 45, N-(1-Methylpiperidin-4-yl)-5-(1H-pyrrolo[2,3-b]pyridin-3-yl) pyrazolo[1,5-a]pyridine-3-carboxamide] are the same in EC50: 1 nM for the first, 1 nM for the second.

First: CN(C)Cc1cnc2ccc(-c3c[nH]c4ncccc34)cn12 [Compound 18, 1-(6-(1H-Pyrrolo[2,3-b]pyridin-3-yl)imidazo[1,2-a]pyridin-3-yl)-N,N-dimethylmethanamine]
Second: c1cnc2[nH]cc(-c3ccc4ncnn4c3)c2c1 [Compound 29, 6-(1H-Pyrrolo[2,3-b]pyridin-3-yl)-[1,2,4]triazolo[1,5-a]pyridine]
The EC50 of the first is 1.7-fold higher: 17 nM for the first, 10 nM for the second. The second is the more potent here.

Compared with `CN1CCN(C(=O)c2cnc3cnc(-c4c[nH]c5ncccc45)cn23)CC1` [Compound 21, (6-(1H-Pyrrolo[2,3-b]pyridin-3-yl)imidazo[1,2-a]pyrazin-3-yl)(4-methylpiperazin-1-yl)methanone], `Cc1cnc2ccc(-c3c[nH]c4ncccc34)nn12` [Compound 34, 3-Methyl-6-(1H-pyrrolo[2,3-b]pyridin-3-yl)imidazo[1,2-b]pyridazine] is 8-fold lower in EC50: 16 nM for the first, 2 nM for the second. The second is the more potent here.

First: Cc1nc2c(F)cc(-c3c[nH]c4ncccc34)cc2n1C1CCNCC1 [Compound 23, 4-Fluoro-2-methyl-1-(piperidin-4-yl)-6-(1H-pyrrolo[2,3-b]pyridin-3-yl)-1H-benzo[d]imidazole]
Second: Cc1nc2c(F)cc(-c3c[nH]c4ncccc34)cc2n1C1CCN(C)CC1 [Compound 24, 4-Fluoro-2-methyl-1-(1-methylpiperidin-4-yl)-6-(1H-pyrrolo[2,3-b]pyridin-3-yl)-1H-benzo[d]imidazole]
The EC50 of the first is 2-fold higher: 2 nM for the first, 1 nM for the second. The second is the more potent here.

Compared with `Cc1nc2ccc(-c3c[nH]c4ncccc34)nc2n1C(C)C` [Compound 27, 3-Isopropyl-2-methyl-5-(1H-pyrrolo[2,3-b]pyridin-3-yl)-3H-imidazo [4,5-b]pyridine], `c1cnc2[nH]cc(-c3ccc4nc5n(c4n3)CCC5)c2c1` [Compound 28, 2-(1H-Pyrrolo[2,3-b]pyridin-3-yl)-7,8-dihydro-6H-pyrrolo [2′,1′:2,3]imidazo[4,5-b]pyridine] is 9.5-fold higher in EC50: 2 nM for the first, 19 nM for the second.

Going from `c1cnc2[nH]cc(-c3ccn4ncnc4c3)c2c1` [Compound 30, 7-(1H-Pyrrolo[2,3-b]pyridin-3-yl)-[1,2,4]triazolo[1,5-a]pyridine] to `c1cnc2[nH]cc(-c3ccn4nccc4c3)c2c1` [Compound 36, 3-(Pyrazolo[1,5-a]pyridin-5-yl)-1H-pyrrolo[2,3-b]pyridine], the EC50 falls from 13 nM to 2 nM (6.5-fold).

`OCc1cnc2ccc(-c3c[nH]c4ncccc34)nn12` [Compound 35, (6-(1H-Pyrrolo[2,3-b]pyridin-3-yl)imidazo[1,2-b]pyridazin-3-yl) methanol] and `c1cncc(-c2cnn3ccc(-c4c[nH]c5ncccc45)cc23)c1` [Compound 38, 3-(3-(Pyridin-3-yl)pyrazolo[1,5-a]pyridin-5-yl)-1H-pyrrolo[2,3-b] pyridine] are the same in EC50: 2 nM for the first, 2 nM for the second.

`O=C(NCC1(F)CNC1)c1cnn2ccc(-c3c[nH]c4ncccc34)cc12` [Compound 41, N-((3-Fluoroazetidin-3-yl)methyl)-5-(1H-pyrrolo[2,3-b]pyridin-3-yl) pyrazolo[1,5-a]pyridine-3-carboxamide] and `CN1CC(F)(CNC(=O)c2cnn3ccc(-c4c[nH]c5ncccc45)cc23)C1` [Compound 42, N-((3-Fluoro-1-methylazetidin-3-yl)methyl)-5-(1H-pyrrolo[2,3-b]pyridin-3-yl)pyrazolo[1,5-a]pyridine-3-carboxamide] are the same in EC50: 2 nM for the first, 2 nM for the second.

`O=C(N[C@@H]1CCNC[C@H]1F)c1cnn2ccc(-c3c[nH]c4ncccc34)cc12` [Compound 43, N-((3R,4R)-3-Fluoropiperidin-4-yl)-5-(1H-pyrrolo[2,3-b]pyridin-3-yl) pyrazolo[1,5-a]pyridine-3-carboxamide] and `CN1CC[C@@H](NC(=O)c2cnn3ccc(-c4c[nH]c5ncccc45)cc23)[C@H](F)C1` [Compound 44, N-((3R,4R)-3-Fluoro-1-methylpiperidin-4-yl)-5-(1H-pyrrolo[2,3-b]pyridin-3-yl)pyrazolo[1,5-a]pyridine-3-carboxamide] are the same in EC50: 1 nM for the first, 1 nM for the second.

Compared with `CN1CCC(N(C)C(=O)c2cnn3ccc(-c4c[nH]c5ncccc45)cc23)CC1` [Compound 46, N-Methyl-N-(1-methylpiperidin-4-yl)-5-(1H-pyrrolo[2,3-b]pyridin-3-yl)pyrazolo[1,5-a]pyridine-3-carboxamide], `O=C(NC1CCN(C2CC2)CC1)c1cnn2ccc(-c3c[nH]c4ncccc34)cc12` [Compound 47, N-(1-Cyclopropylpiperidin-4-yl)-5-(1H-pyrrolo[2,3-b]pyridin-3-yl) pyrazolo[1,5-a]pyridine-3-carboxamide] is 2.5-fold lower in EC50: 5 nM for the first, 2 nM for the second. The second is the more potent here.

`O=C(NC1CCN(CC2CC2)CC1)c1cnn2ccc(-c3c[nH]c4ncccc34)cc12` [Compound 48, N-(1-(cyclopropylmethyl)piperidin-4-yl)-5-(1H-pyrrolo[2,3-b]pyridin-3-yl)pyrazolo[1,5-a]pyridine-3-carboxamide] and `COCCN1CCC(NC(=O)c2cnn3ccc(-c4c[nH]c5ncccc45)cc23)CC1` [Compound 50, N-(1-(2-Methoxyethyl)piperidin-4-yl)-5-(1H-pyrrolo[2,3-b]pyridin-3-yl)pyrazolo[1,5-a]pyridine-3-carboxamide] are the same in EC50: 1 nM for the first, 1 nM for the second.

Work on `CC(F)(F)CN1CCC(NC(=O)c2cnn3ccc(-c4c[nH]c5ncccc45)cc23)CC1` [Compound 49, N-(1-(2,2-Difluoropropyl)piperidin-4-yl)-5-(1H-pyrrolo[2,3-b]pyridin-3-yl)pyrazolo[1,5-a]pyridine-3-carboxamide] yielded an EC50 of 1 nM.

Source: US20230192686A1, “1H-PYRROLO[2,3-B]PYRIDINES AND PREPARATION AND USES THEREOF” (BioSplice Therapeutics, Inc., priority 2021, published 2023)
